Assay results: patent US9931347B2, “Pharmaceutical compound” (IOmet Pharma Ltd., priority 2013, dated 2018)

Legend:
[1] = target: T1, TDO (A172 human glioblastoma cells) (Homo sapiens, UniProt P48775); test: A172 Kynurenine cell based assay; conditions: 500 μM L-tryptophan, 48 hours, kynurenine by Erhlich's reagent
T1 construct: This assay utilised cancer cells which expressed either TDO or IDO; endogenous in cells; host or cells: A172 human glioblastoma cells
Outline: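 Kynurenine released into the supernatant was quantified by absorbance at 490 nm after 5 min with Erhlich's reagent. A172 cells were seeded at 30,000/well and exposed to test compound for 48 hours at 37° C. in phenol red-free RPMI containing 500 μM L-tryptophan, 10% FCS and 2 mM L-glutamine.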

[2] = target: T2, IDO (SKOV3 human ovarian adenocarcinoma cells, IFN-γ induced) (Homo sapiens, UniProt P14902); test: SKOV3 Kynurenine cell based assay; conditions: IDO induced by 500 ng/ml IFN-γ, 500 μM L-tryptophan, 48 hours
T2 construct: IDO expression was induced in the SKOV3 cells by the addition of 500 ng/ml IFN-γ; endogenous in cells; host or cells: SKOV3 human ovarian adenocarcinoma cells, induced with IFN-γ
Outline: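 Kynurenine in the supernatant, detected by Ehrlich's reagent, served as read-out after 48 h at 37° C with or without test compound. SKOV3 cells (40,000/well) were grown in phenol red-free RPMI, 10% FCS, 2 mM L-glutamine, 500 μM L-tryptophan, with 500 ng/ml IFN-γ to induce IDO.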

[3] = target: Recombinant human IDO (Homo sapiens, UniProt P14902); test: hIDO biochemical coupled assay; conditions: 45 μM L-tryptophan, coupled with kynurenine formamidase
Outline: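 Recombinant human IDO incubated in 50 mM KPO4 (pH 7.0), 0.5 mM EGTA, 0.5 mM EDTA, 0.05% Triton X100, 20 mM ascorbate, 10 μM methylene blue, 500 U/ml catalase and 50 μg/ml kynurenine formamidase. N-formylkynurenine converted to kynurenine, quantified by fluorescence after Ehrlich's reagent.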

[4] = target: Recombinant human TDO (Homo sapiens, UniProt P48775); test: hTDO biochemical coupled assay; conditions: 330 μM L-tryptophan, coupled with kynurenine formamidase
Method: Exemplary compounds of the invention were prepared, and tested to determine their effect as TDO and/or IDO inhibitors. Two different assays were employed: 1. a cell-based assay for detecting the effect of test compounds on kynurenine production in two different cancer cell types. This assay utilised cancer cells which expressed either TDO or IDO and as such was used as a means of testing compound activity at these two enzymes in a cell-based context. 2. a TDO and IDO biochemical coupled assay which utilised recombinantly produced and purified TDO and IDO enzymes in combination with the enzyme formamidase. This coupled enzyme system allowed conversion of N-formylkynurenine produced by TDO or IDO activity to kynurenine which was then quantified by fluorescence following addition of Erhlich's Reagent The protocols for these are set out below.
Recombinant human IDO or TDO was incubated in 50 mM KPO4 (pH 7.0), 0.5 mM EGTA, 0.5 mM EDTA, 0.05% Triton™ X100, 20 mM ascorbate, 10 μM methylene blue, 500 U/ml catalase, 50 μg/ml KynB (kynurenine formamidase). TDO assays were carried out in the presence of 330 μM L-tryptophan, while IDO assays had the addition of 45 μM L-tryptophan. After incubation for 17 minutes at room temperature the reactions were stopped by the addition of Erhlich's reagent and incubated at room temperature for 5 minutes before the fluorescence was read (Ex475, Em530).

T1 sequence (P48775 whole entry): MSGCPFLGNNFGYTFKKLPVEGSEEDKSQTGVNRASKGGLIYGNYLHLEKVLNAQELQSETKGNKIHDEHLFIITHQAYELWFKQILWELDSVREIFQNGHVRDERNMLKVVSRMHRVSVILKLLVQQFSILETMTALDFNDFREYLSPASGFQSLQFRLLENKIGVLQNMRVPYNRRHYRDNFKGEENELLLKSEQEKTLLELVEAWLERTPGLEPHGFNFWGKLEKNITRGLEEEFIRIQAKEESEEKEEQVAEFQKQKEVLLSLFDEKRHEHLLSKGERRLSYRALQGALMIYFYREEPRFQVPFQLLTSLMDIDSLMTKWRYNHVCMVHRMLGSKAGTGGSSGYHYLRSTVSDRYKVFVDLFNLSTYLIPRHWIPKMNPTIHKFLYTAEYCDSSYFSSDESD
Recombinant human TDO, sequence (P48775 whole entry): as above
Recombinant human IDO, sequence (P14902 whole entry): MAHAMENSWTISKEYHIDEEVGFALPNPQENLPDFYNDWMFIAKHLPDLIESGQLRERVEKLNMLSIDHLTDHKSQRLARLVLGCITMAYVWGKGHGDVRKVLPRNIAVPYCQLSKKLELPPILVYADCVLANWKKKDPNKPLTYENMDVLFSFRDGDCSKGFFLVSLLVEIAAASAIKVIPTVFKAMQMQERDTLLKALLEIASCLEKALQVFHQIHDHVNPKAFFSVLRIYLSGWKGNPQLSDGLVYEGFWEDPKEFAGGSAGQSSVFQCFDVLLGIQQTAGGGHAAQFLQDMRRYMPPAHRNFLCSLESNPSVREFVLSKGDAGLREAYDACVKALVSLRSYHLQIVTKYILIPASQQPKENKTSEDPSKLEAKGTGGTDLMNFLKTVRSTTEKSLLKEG
T2 sequence (P14902 whole entry): as above

SMILES	A172 Kynurenine cell based assay pIC50 [1]	SKOV3 Kynurenine cell based assay pIC50 [2]	hIDO biocehmical assay pIC50 [3]	hTDO biochemical assay pIC50 [4]
CCc1cc(Br)ccc1S(=O)(=O)N1CCC(c2c[nH]c3ccc(OC)cc23)CC1 [Compound 29]	+− (+− = pIC50 <4.00)	+ (+ = pIC50 4.00-4.99)	+− (+− = pIC50 <4.00)	+− (+− = pIC50 <4.00)
CC(=O)N1CC=C(c2n[nH]c3ccccc23)CC1 [Compound 102]	+− (+− = pIC50 <4.00)	+− (+− = pIC50 <4.00)	+− (+− = pIC50 <4.00)	+ (+ = pIC50 4.00-4.99)
FC(F)(F)CN1CCC(c2c[nH]c3ccccc23)CC1 [Compound 10]	+ (+ = pIC50 4.00-4.99)	+− (+− = pIC50 <4.00)	+− (+− = pIC50 <4.00)	+− (+− = pIC50 <4.00)
CC(=O)N1CCC(c2c[nH]c3cccc(F)c23)CC1 [Compound 98]	+ (+ = pIC50 4.00-4.99)	+− (+− = pIC50 <4.00)	+− (+− = pIC50 <4.00)	+− (+− = pIC50 <4.00)
COc1ccc2[nH]cc(C3CCN(S(=O)(=O)c4cc(C(F)(F)F)ccc4C(F)(F)F)CC3)c2c1 [Compound 55]	+− (+− = pIC50 <4.00)	++ (++ = pIC50 5.00-5.99)	+− (+− = pIC50 <4.00)	+− (+− = pIC50 <4.00)
CC(C)OCC(=O)N1CC=C(c2c[nH]c3cc(F)ccc23)CC1 [Compound 163]	+++ (+++ = pIC50 ≥6.00)	+ (+ = pIC50 4.00-4.99)	+− (+− = pIC50 <4.00)	++ (++ = pIC50 5.00-5.99)
Cc1cccc2c(C3CCN(C(=O)c4ccccc4OC(F)(F)F)CC3)c[nH]c12 [Compound 59]	+ (+ = pIC50 4.00-4.99)	+ (+ = pIC50 4.00-4.99)	+− (+− = pIC50 <4.00)	+− (+− = pIC50 <4.00)
CC(=O)N1CC=C(c2c[nH]c3cc(Cl)ccc23)CC1 [Compound 79]	++ (++ = pIC50 5.00-5.99)	+ (+ = pIC50 4.00-4.99)	+− (+− = pIC50 <4.00)	++ (++ = pIC50 5.00-5.99)
CS(=O)(=O)N1CCC(c2c[nH]c3cccc(F)c23)CC1 [Compound 95]	+ (+ = pIC50 4.00-4.99)	+− (+− = pIC50 <4.00)	+− (+− = pIC50 <4.00)	+− (+− = pIC50 <4.00)
O=S(=O)(c1ccccc1Br)N1CCC(c2c[nH]c3ccccc23)CC1 [Compound 21]	+ (+ = pIC50 4.00-4.99)	+ (+ = pIC50 4.00-4.99)	+− (+− = pIC50 <4.00)	+− (+− = pIC50 <4.00)
CS(=O)(=O)N1CCC(c2c[nH]c3ccncc23)CC1 [Compound 175]	+ (+ = pIC50 4.00-4.99)	+ (+ = pIC50 4.00-4.99)	+− (+− = pIC50 <4.00)	+− (+− = pIC50 <4.00)
CCCC(=O)N1CCC(c2c[nH]c3ccccc23)CC1 [Compound 83]	+ (+ = pIC50 4.00-4.99)	+− (+− = pIC50 <4.00)	+− (+− = pIC50 <4.00)	+− (+− = pIC50 <4.00)
CS(=O)(=O)N1CC=C(c2c[nH]c3cc(F)c(F)cc23)CC1 [Compound 168]	+++ (+++ = pIC50 ≥6.00)	+ (+ = pIC50 4.00-4.99)	+− (+− = pIC50 <4.00)	++ (++ = pIC50 5.00-5.99)
Cc1ccc2[nH]cc(C3CCN(S(C)(=O)=O)CC3)c2c1 [Compound 85]	++ (++ = pIC50 5.00-5.99)	++ (++ = pIC50 5.00-5.99)	+− (+− = pIC50 <4.00)	+− (+− = pIC50 <4.00)
NS(=O)(=O)N1CC=C(c2c[nH]c3cc(F)ccc23)CC1 [Compound 164]	+++ (+++ = pIC50 ≥6.00)	+− (+− = pIC50 <4.00)	+− (+− = pIC50 <4.00)	+++ (+++ = pIC50 ≥6.00)
Cc1ccc(S(=O)(=O)N2CCC(c3c[nH]c4ccccc34)CC2)c(C)c1 [Compound 14]	+ (+ = pIC50 4.00-4.99)	+− (+− = pIC50 <4.00)	+− (+− = pIC50 <4.00)	+− (+− = pIC50 <4.00)
Cc1ccc2[nH]cc(C3=CCN(S(C)(=O)=O)CC3)c2c1 [Compound 92]	++ (++ = pIC50 5.00-5.99)	+ (+ = pIC50 4.00-4.99)	+− (+− = pIC50 <4.00)	+ (+ = pIC50 4.00-4.99)
COc1ccc2[nH]cc(C3CCN(C(=O)C(C)C)CC3)c2c1 [Compound 15]	+− (+− = pIC50 <4.00)	+ (+ = pIC50 4.00-4.99)	+− (+− = pIC50 <4.00)	+− (+− = pIC50 <4.00)
Cc1ccc2[nH]cc(C3CCN(S(=O)(=O)c4cc(C(F)(F)F)ccc4C(F)(F)F)CC3)c2c1 [Compound 35]	+− (+− = pIC50 <4.00)	+ (+ = pIC50 4.00-4.99)	+− (+− = pIC50 <4.00)	+− (+− = pIC50 <4.00)
COCC(=O)N1CCC(c2c[nH]c3ccccc23)CC1 [Compound 84]	+ (+ = pIC50 4.00-4.99)	+− (+− = pIC50 <4.00)	+− (+− = pIC50 <4.00)	+− (+− = pIC50 <4.00)
CC(=O)N1CC=C(c2c[nH]c3ccc(Cl)cc23)CC1 [Compound 165]	++ (++ = pIC50 5.00-5.99)	+ (+ = pIC50 4.00-4.99)	+− (+− = pIC50 <4.00)	+ (+ = pIC50 4.00-4.99)
Cc1ccc2[nH]cc(C3CCN(S(=O)(=O)c4ccc(Br)cc4OC(F)(F)F)CC3)c2c1 [Compound 34]	+ (+ = pIC50 4.00-4.99)	+ (+ = pIC50 4.00-4.99)	+− (+− = pIC50 <4.00)	+− (+− = pIC50 <4.00)
CC(=O)N1CC=C(c2c[nH]c3c(F)cccc23)CC1 [Compound 94]	+ (+ = pIC50 4.00-4.99)	+− (+− = pIC50 <4.00)	+− (+− = pIC50 <4.00)	+ (+ = pIC50 4.00-4.99)
Cc1[nH]c2ccccc2c1C1CCN(C(=O)C2CCCO2)CC1 (centres unmarked) [Compound 17]	+− (+− = pIC50 <4.00)	+ (+ = pIC50 4.00-4.99)	+− (+− = pIC50 <4.00)	+− (+− = pIC50 <4.00)
O=S(=O)(c1cccc(OC(F)(F)F)c1)N1CCC(c2c[nH]c3ccccc23)CC1 [Compound 57]	+ (+ = pIC50 4.00-4.99)	+ (+ = pIC50 4.00-4.99)	+− (+− = pIC50 <4.00)	+− (+− = pIC50 <4.00)
Cc1ccc(S(=O)(=O)N2CCC(c3c[nH]c4ccccc34)CC2)cc1 [Compound 9]	+ (+ = pIC50 4.00-4.99)	+ (+ = pIC50 4.00-4.99)	+− (+− = pIC50 <4.00)	+− (+− = pIC50 <4.00)
